Data published in patent US20140271667A1, “Methods and Compositions for Neoadjuvant Therapy” (The Wistar Institute of Anatomy and Biology, priority 2013, published 2014).
Entries after “also recorded” stand apart in the source; their conditions may differ.

Legend:
Akt or ERK = assay: Western blotting, Akt or ERK phosphorylation; format: cell-based, human; conditions: Gamitrinib 5 μM
Experimental: (§1) Protein lysates were prepared in RIPA buffer containing 150 mM NaCl, 1.0% Triton X-100, 0.5% sodium deoxycholate, 0.1% SDS, 50 mM Tris, pH 8.0, in the presence of EDTA-free protease inhibitor cocktail (Roche) and phosphatase inhibitor cocktail 2 and 3 (Sigma Aldrich). Equal amounts of protein lysates were separated by SDS gel electrophoresis, transferred to PVDF membranes and incubated with primary antibodies of various specificities. Protein bands were detected by chemiluminescence, as described (21).

PC3 cells [1] = assay: Matrigel-coated transwell cell invasion; format: cell-based, human; conditions: Gamitrinib 5 μM, 17-AAG 5 μM, CCCP 12.5 μM, 2-DG 25 mM, 16 h
Experimental: (§2) Various tumor cell types were treated as indicated in each experiment, suspended in 0.1% BSA/DMEM and seeded (1.6−3.2×10^3 cells/mm2, depending on the cell type) in the upper compartment of […] pore diameter BD transwells (BD). NIH3T3 conditioned medium was placed in the lower compartment as a chemoattractant. After 6-18 h incubations at 37° C., the transwell membranes were recovered and cells on the upper side (non-migratory) were wiped off the surface. Cells on the lower side of the membrane were fixed in methanol, rinsed in water and mounted on glass slides with Vectashield medium containing DAPI (Vector Laboratories). Migrated cells on each membrane were counted by fluorescence microscopy in 5 different fields. For cell invasion assays, transwell membranes were coated with Matrigel and processed as described above.

bone metastatic disease = conditions: orthotopic xenograft models and genetic mouse models; cited from earlier work
[2] = test system: p21-activated kinases, Pak-1,2; assay: Western blotting, Pak phosphorylation; format: cell-based, human; conditions: Gamitrinib 5 μM
Experimental: as §1

PC3 cells [3] = assay: Wound closure assay, tumor cells; format: cell-based, human; conditions: Gamitrinib 5 μM, 16 and 24 h
PC3 cells [4] = assay: Transwell cell migration; format: cell-based, human; conditions: Gamitrinib 5 μM, 17-AAG 5 μM, CCCP 12.5 μM, 2-DG 25 mM, rapamycin 0.1 μM, 6 h
Experimental: as §2

[5] = test system: normal human MRC-5 lung fibroblasts; assay: Wound closure assay, normal fibroblasts; format: cell-based; conditions: Gamitrinib 5-10 μM, 16 or 24 h
Experimental: For cell migration experiments using a wound closure assay, confluent monolayers of MRC-5 cells were incubated with vehicle or Gamitrinib (5-10 μM), and wounded using a 10 μl pipette tip. Three micrographs/well were obtained at time=0, 16 and 24 h after wounding, and the percentage of wound closure was normalized to the maximum initial area for each well. For analysis of tumor cell invasion in 3D organotypic spheroids, tumor cells (5×10^4) were seeded onto 96-well plates coated with 1.5% agar (Difco Noble Agar) in PBS, pH 7.4. Spheroids were allowed to form over a 72 h period and then embedded in […] of bovine collagen type I (Organogenesis) in 24-well plates. Spheroids were overlaid with 1 ml of growth medium, treated with various concentrations of Gamitrinib for 72 h, and analyzed for changes in maximum invasion distance and invasion area. Quantification of live vs. dead cells under the various conditions tested was performed by staining the spheroids with calcein-AM (live, bright cluster) and Topro-3 (dead, dark spots) (Invitrogen) for 2 h. Samples were imaged using a Prairie Ultima II 2-photon microscope (Prairie Technologies, Inc, Middleton, Wis.), and stacks of 100 slices were generated in 2 channels. 3-D reconstruction of the labeled spheroids and analysis of cell staining was carried out using ImagePro Plus 3D software (Media Cybernetics, Silver Spring Md.).

PC3 cells [6] = assay: Cell proliferation by direct cell counting; format: cell-based, human; conditions: vs vehicle, Gamitrinib 5 μM, CCCP 12.5 μM, 2-DG 25 mM
Experimental: Tumor cells were plated onto 96-well plates at 3.7×10^3/well and treated with vehicle or Gamitrinib (5 μM). After 24 h, cell viability was assessed with a 3 (4,5-dimethyl-thyazoyl-2-yl)2,5 diphenyltetrazolium bromide (MTT) colorimetric assay (24), or, alternatively, by Trypan blue exclusion and light microscopy. Data were background-subtracted relative to vehicle-treated cultures. In some experiments, tumor cell proliferation was assessed by direct cell counting and light microscopy.

Src = assay: Western blotting, Src phosphorylation; format: cell-based, human; conditions: Gamitrinib 5 μM
Experimental: as §1

LN229 cells = assay: ATP measurement (luciferin-luciferase); format: cell-based, human; conditions: Gamitrinib 5-10 μM, concentration-dependent
Experimental: Intracellular ATP concentrations were measured by the luciferin-luciferase method using an ATP measuring kit (Biochain). The ATP concentration in each extract was determined in a microplate luminometer (Beckman Coulter) against standard ATP solutions used as reference.

PC3 cells [7] = assay: Lamella dynamics in live cells (SACED stroboscopic analysis); format: cell-based, human; conditions: Gamitrinib 5 μM
Experimental: Tumor cells growing at low confluency (3-5×10^4/well) on high optical quality 96 well μ-plates (Ibidi) were imaged with a 40× objective on a Nikon TE300 inverted time-lapse microscope equipped with a video system containing a Evolution QEi camera and a time-lapse video cassette recorder. All experiments were carried out in atmosphere-equilibrated environment at 37° C. and 5% CO2. Phase contrast images were captured at 0.5 sec intervals for 5 min (600 images=300 sec) and merged into sequence files using ImagePro Plus 7. Real time dynamics of a particular cellular region were quantified by Stroboscopic Analysis of Cell Dynamics (SACED) (55), with generation of digital steps from the first 120 sec (240 frames) of the sequence files imported into Image J software. A particular region of 16.2 μm×0.162 μm (“SACED line”) was selected in cells under analysis, duplicated and montaged in sequence to display the region over time in a stroboscopic image. […] Structures such as protruding lamellipodia and ruffles were manually labeled and the frequency of ruffles per min was calculated. Mean values were calculated from at least 15 cells from 4 separate wells. All experiments were repeated at least twice with different tumor cell types.

In the case of Gamitrinib, the “Akt or ERK phosphorylation” value (Akt or ERK) is given as “not affected”, the tumor cell invasion (PC3 cells [1]) is given as “suppressed” and the bone metastatic disease (bone metastatic disease) is given as “inhibit bone metastatic disease”. For the same substance, the “Pak-1,2 phosphorylation on Ser199, Ser144 and Ser20” value [2] was “inhibited the phosphorylation”, the “tumor cell migration in wound closure assay” value (PC3 cells [3]) was “inhibited tumor cell migration” and the tumor cell migration (PC3 cells [4]) was “suppressed”. The “migration of normal human fibroblasts in wound closure assay” value [5] was “did not affect migration”, the tumor cell proliferation (PC3 cells [6]) was “did not reduce tumor cell proliferation; also recorded: did not affect cell proliferation” and the “Src phosphorylation on Tyr416” value (Src) was “inhibited the phosphorylation”. For the same substance, the “ATP production in tumor cells” value (LN229 cells) was “inhibited ATP production”, the “ruffling frequency and retraction speed” value (PC3 cells [7]; PC3) was “profound inhibition” and the cytoskeletal lamella dynamics (PC3 cells [7]; single cell time-lapse videomicroscopy) was “nearly complete loss”.
